{"source": "patent EP1118615A1", "about": "“NOVEL SALTS OF PYRIDOPYRAZINE COMPOUND AND CRYSTALS THEREOF” (FUJISAWA PHARMACEUTICAL CO., LTD., priority 1998, dated 2000)", "key": {"human PDE4-B1 isoform": {"target": "T1, human PDE4-B1 isoform (Homo sapiens, UniProt Q07343)", "T1 construct": "made in house; host or cells: CHO cells", "T1 sequence (Q07343 whole entry, canonical isoform)": "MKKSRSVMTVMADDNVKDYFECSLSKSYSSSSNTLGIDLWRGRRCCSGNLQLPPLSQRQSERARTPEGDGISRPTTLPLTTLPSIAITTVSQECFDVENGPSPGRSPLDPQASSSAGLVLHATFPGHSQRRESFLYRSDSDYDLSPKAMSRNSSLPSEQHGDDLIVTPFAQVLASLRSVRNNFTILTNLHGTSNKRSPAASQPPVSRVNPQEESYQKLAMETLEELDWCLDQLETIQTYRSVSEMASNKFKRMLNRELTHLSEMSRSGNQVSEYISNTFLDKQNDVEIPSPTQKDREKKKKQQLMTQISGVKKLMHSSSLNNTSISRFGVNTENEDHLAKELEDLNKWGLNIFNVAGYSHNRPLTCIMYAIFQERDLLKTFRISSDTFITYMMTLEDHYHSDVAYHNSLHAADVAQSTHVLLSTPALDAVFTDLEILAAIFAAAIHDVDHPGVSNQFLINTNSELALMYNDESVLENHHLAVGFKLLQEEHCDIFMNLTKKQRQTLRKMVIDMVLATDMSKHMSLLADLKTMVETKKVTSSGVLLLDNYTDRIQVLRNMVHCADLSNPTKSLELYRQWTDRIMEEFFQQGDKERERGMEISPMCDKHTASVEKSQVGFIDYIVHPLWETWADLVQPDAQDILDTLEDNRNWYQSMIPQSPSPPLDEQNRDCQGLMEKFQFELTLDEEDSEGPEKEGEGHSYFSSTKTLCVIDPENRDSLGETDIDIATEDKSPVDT", "assay": "(A1) PDE-IV inhibitory activity, crude enzyme from CHO cells expressing the cDNA", "type": "biochemical", "protocol": "(A1) PDE-IV inhibitory activity [Method] A crude enzyme was prepared from the cells (CHO cells) to which the cDNA for human PDE4-B1 isoform had been introduced for expression of the protein and the PDE4 inhibitory activity of the compound (I) of this invention was determined."}, "TNF α": {"test_system": "TNF α", "assay": "(A3) Anti-CD3/CD28 antibody-stimulated cytokine production inhibitory activity in PBMC, ELISA: TNF α", "type": "cell-based", "conditions": "Homo sapiens, anti-CD3 and anti-CD28 antibodies, 24-hr culture supernatant", "protocol": "(§1) (A3) Anti-CD3/CD28 antibody-stimulated TNF α production inhibitory activity in human peripheral blood monocytes (PBMC)\n(§2) [Method] Monocytes isolated from healthy adult male volunteers were cultured and stimulated with anti-CD3 and anti-CD28 antibodies and the amounts of TNF, INF, 1L-2, IL-4 and IL-10 in the 24-hr culture supernatant were determined by ELISA."}, "[1]": {"assay": "(A3) Anti-CD3/CD28 antibody-stimulated cytokine production inhibitory activity in PBMC, ELISA: TNF γ", "type": "cell-based", "conditions": "Homo sapiens, anti-CD3 and anti-CD28 antibodies, 24-hr culture supernatant", "protocol": "as §1, §2"}, "IL-10": {"test_system": "IL-10", "assay": "(A3) Anti-CD3/CD28 antibody-stimulated cytokine production inhibitory activity in PBMC, ELISA: IL-10", "type": "cell-based", "conditions": "Homo sapiens, anti-CD3 and anti-CD28 antibodies, 24-hr culture supernatant", "protocol": "as §1, §2"}, "[2]": {"test_system": "DGalN-induced rat hepatitis model", "assay": "(B2) DGalN-induced rat hepatitis model", "type": "in vivo, Wistar rats", "conditions": "oral, 24 hours after DGalN", "protocol": "(B2) DGalN-induced rat hepatitis model\n[Method] Male Wistar rats aged 12 weeks were deprived of food for 24 hours and dosed orally with the drug or the solvent vehicle in predetermined doses. Immediately thereafter, saline was administered intraperitoneally to the NORMAL group and D-galactosamine hydrochloride (DGalN), 400 mg/kg, was administered similarly to the CONTROL and DRUG groups. At 24 hours after administration of DGalN, the blood was drawn and the liver isolated. Using the blood, the liver-derived en zymes (ALT, AST) in plasma were assayed. The liver was fixed in formalin and pathological specimens were prepared. Histopathological findings (inflammatory cell infiltration and liver cell necrosis) were evaluated."}, "[3]": {"test_system": "LEC rat spontaneous hepatitis model", "assay": "(B5) LEC rat spontaneous hepatitis model", "type": "in vivo, Long Evans Cinnamon (LEC) rats", "conditions": "oral once daily for 23 consecutive weeks", "protocol": "(B5) LEC rat spontaneous hepatitis model\nLong Evans Cinnamon (LEC) rats are known to spontaneously develop acute hepatitis with jaundice as a cardinal sign and 50~70% of them experience a fulminating stage and die. It is also known that almost all surviving animals run a clinical course of acute hepatitis-chronic hepatitis-biliary fibrosis (cirrhosis)-hepatocarcinoma.\n[Method] To 9-week-old male LEC rats, either the drug or the solvent vehicle was administered orally in predetermined doses once daily for 23 consecutive weeks. On the day following the last dosing day, the blood was drawn and the liver isolated. Using the blood, the liver-derived enzymes (ALT, AST) in plasma were assayed. The liver was fixed in formalin and pathological specimens were prepared. Histopathological findings (inflammatory cell infiltration, biliary hyperplasia and liver cell necrosis) were evaluated."}, "[4]": {"test_system": "Guinea-pig model of delayed asthma", "assay": "(B6) Guinea-pig model of delayed asthma", "type": "in vivo, Hartley guinea pigs", "conditions": "oral 1 hour before exposure to the antigen; 4~8 hours after exposure", "protocol": "(B6) Guinea-pig model of delayed asthma\n[Method] Male Hartley guinea pigs were sensitized intraperitoneally with ovalbumin/Freund's complete adjuvant. On day 23 after immunization, the animals were caused to inhale a mist of ovalbumin solution from a sonic nebulizer for 3 minutes to elicit an asthmatic response. The drug was administered orally 1 hour before exposure to the antigen. The special airway resistance (sRaw) after exposure to the antigen was measured and the case in which the sRaw value had increased two-fold or more from the pre-exposure baseline in 4~8 hours was regarded as a case of delayed asthma."}, "[5]": {"test_system": "Arachidonic acid-induced ear edema model", "assay": "(B7) Atopy, Method 1: arachidonic acid-induced ear edema model", "type": "in vivo, Balb/c mice", "conditions": "oral 30 minutes before arachidonic acid; auricle thickness after 1 hour", "protocol": "[Method 1] Arachidonic acid-induced ear edema model:\nTo the left auricle of Balb/c mice, 2 mg/ear of arachidonic acid was applied to induce a skin inflammation. After 1 hour, the thickness of the auricle was measured with a peacock dial thickness gage and used as an indicator of skin inflammation. The drug was administered orally 30 minutes before application of arachidonic acid."}, "[6]": {"test_system": "mouse model of NC/NGa dermatitis", "assay": "(B7) Atopy, Method 2: spontaneous atopic dermatitis model", "type": "in vivo", "conditions": "oral once daily for 17 consecutive days", "protocol": "[Method 2] Spontaneous atopic dermatitis mode:\nIn the mouse model of NC/NGa dermatitis, the drug was administered orally once daily for 17 consecutive days."}, "[7]": {"test_system": "antigen-induced eosinophil infiltration in guinea pigs", "assay": "(B8) Inhibitory effect on antigen-induced eosinophil infiltration in guinea pigs", "type": "in vivo, Hartley guinea pigs", "conditions": "oral 1 hour before the challenge; BAL 24 hours after challenge", "protocol": "(B8) Inhibitory effect on antigen-induced eosinophil infiltration in guinea pigs\n[Method] Male Hartley guinea pigs were sensitized by intravenous administration of guinea-pig anti-ovalbumin (OVA) antiserum. After 24 hours, an antigen challenge was performed by inhalation exposure to a nebulized 1% solution of OVA. At 24 hours after challenge with the antigen, the bronchial alveolar lavage (BAL) was collected and the number of eosinophils was determined using the eosinophil peroxidase activity in BAL as an indicator. The drug was administered orally 1 hour before the challenge. [Results]"}, "Stability in solid state": {"assay": "Stability in solid state", "type": "physicochemical", "set-up": "Water content: unit not given here", "excerpt": "The crystallinity of hydrochloride was decreased when it was mixed with ethanol.\n(§3) In the study on polymorphism of compound (I), six kinds of polymorphs (A01, A09, A16, A20, A30 and A43 crystals) were found. For each of those polymorphs, hygroscopicity, stability in solid state, solubility and changes in crystallinity on compounding with various solvents were studied. However, the A30 crystal was not studied since it contains ethanol.\n(2) Stability in solid state"}, "Hygroscopicity": {"assay": "Hygroscopicity", "type": "physicochemical", "excerpt": "as §3"}, "physchem": {"assay": "physchem", "conditions": "thermodynamic from solid"}}, "data": [{"smiles": "CS(=O)(=O)O.O.O.O=C(Nc1cccc(-n2c(=O)c(Cc3cccnc3)nc3cccnc32)c1)c1cc(Cl)cc(Cl)c1", "note": "[Example 2, 4-(3-(3,5-dichlorobenzoylamino)phenyl)-2-(3-pyridyl)methyl-3-oxo-3,4-dihydropyrido[2,3-b]pyrazine methanesulfonate dihydrate]", "values": [{"measurement": "IC50", "setting": "human PDE4-B1 isoform", "result": 26, "unit": "nM"}, {"measurement": "IC50", "setting": "TNF α", "result": 44.5, "unit": "nM"}, {"measurement": "IC50", "setting": "[1]", "result": 57.3, "unit": "nM"}, {"measurement": "IC50", "setting": "IL-10", "result": 59.7, "unit": "nM"}, {"measurement": "elevation of blood ALT", "setting": "[2]", "result": "significantly inhibited"}, {"measurement": "elevation of blood AST", "setting": "[2]", "result": "significantly inhibited"}, {"measurement": "inflammatory cell infiltration", "setting": "[2]; histopathology", "result": "inhibited"}, {"measurement": "liver cell necrosis", "setting": "[2]; histopathology", "result": "inhibited"}, {"measurement": "elevation of blood ALT", "setting": "[3]", "result": "significantly inhibited"}, {"measurement": "elevation of blood AST", "setting": "[3]", "result": "significantly inhibited"}, {"measurement": "inflammatory cell infiltration", "setting": "[3]; histopathology", "result": "inhibited"}, {"measurement": "liver cell necrosis", "setting": "[3]; histopathology", "result": "inhibited"}, {"measurement": "delayed asthmatic response", "setting": "[4]", "result": "inhibited"}, {"measurement": "ear edema", "setting": "[5]", "result": "significantly inhibited"}, {"measurement": "disease state-ameliorating effect", "setting": "[6]", "result": "significant disease state-ameliorating effect"}, {"measurement": "infiltration of eosinophils and other inflammatory cells into the bronchial alveola", "setting": "[7]", "result": "inhibited"}, {"measurement": "% Residue", "setting": "Stability in solid state; 70°C, 75% RH, 9 days", "result": 101.6, "unit": "%"}, {"measurement": "Appearance", "setting": "Stability in solid state; 70°C, 75% RH, 9 days", "result": "Pale yellowish white crystalline powder"}, {"measurement": "Crystal form", "setting": "Stability in solid state; 70°C, 75% RH, 9 days", "result": "Unchanged"}, {"measurement": "Water content", "setting": "Stability in solid state; 70°C, 75% RH, 9 days", "result": 5.09}, {"measurement": "% Residue", "setting": "Stability in solid state; 70°C, 9 days", "result": 100.3, "unit": "%"}, {"measurement": "Appearance", "setting": "Stability in solid state; 70°C, 9 days", "result": "Pale yellowish white crystalline powder"}, {"measurement": "Crystal form", "setting": "Stability in solid state; 70°C, 9 days", "result": "Unchanged"}, {"measurement": "Water content", "setting": "Stability in solid state; 70°C, 9 days", "result": 1.68}, {"measurement": "% Residue", "setting": "Stability in solid state; Initial", "result": 100.0, "unit": "%"}, {"measurement": "Appearance", "setting": "Stability in solid state; Initial", "result": "Pale yellowish white white crystalline powder"}, {"measurement": "Water content", "setting": "Stability in solid state; Initial", "result": 1.75}, {"measurement": "change in crystal form", "setting": "Stability in solid state; heat and humidity, summary of Table 3", "result": "no change"}, {"measurement": "chemical stability against heat and humidity", "setting": "Stability in solid state; summary of Table 3", "result": "chemically stable"}, {"measurement": "Hygroscopicity", "setting": "Hygroscopicity", "result": "less hygroscopic"}, {"measurement": "solubility at 30 min", "setting": "physchem; saline or isotonic", "result": 64.3, "unit": "µg/mL"}, {"measurement": "solubility at 30 min", "setting": "physchem; water", "result": 887, "unit": "µg/mL"}]}]}
